Source: ChEMBL document CHEMBL1955812, “New chemotypes acting as isozyme-selective carbonic anhydrase inhibitors with low affinity for the offtarget cytosolic isoform II” (Bioorg Med Chem Lett, 2012)
Blank lines part the entries; values can stand above or below the compound they belong to.

Columns and labels:
Carbonic anhydrase 14 [1] = target: T1, Carbonic anhydrase 14 (Homo sapiens, UniProt Q9ULX7); assay: Inhibition of human recombinant carbonic anhydrase 14 preincubated for 15 mins to 72 hrs measured after 15 mins by stopped flow CO2 hydration method
T1 sequence (Q9ULX7 whole entry): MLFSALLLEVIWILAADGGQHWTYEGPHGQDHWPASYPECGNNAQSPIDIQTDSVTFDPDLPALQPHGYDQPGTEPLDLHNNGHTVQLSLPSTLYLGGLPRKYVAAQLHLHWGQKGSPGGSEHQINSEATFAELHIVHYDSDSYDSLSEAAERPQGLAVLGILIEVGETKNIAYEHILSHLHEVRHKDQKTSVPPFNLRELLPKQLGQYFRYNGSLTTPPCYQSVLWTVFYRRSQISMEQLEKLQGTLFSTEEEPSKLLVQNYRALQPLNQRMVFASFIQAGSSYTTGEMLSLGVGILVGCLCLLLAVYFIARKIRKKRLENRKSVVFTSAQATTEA

Carbonic anhydrase 13 [2] = target: T2, Carbonic anhydrase 13 (Homo sapiens, UniProt Q8N1Q1); assay: Inhibition of human recombinant carbonic anhydrase 13 preincubated for 15 mins to 72 hrs measured after 15 mins by stopped flow CO2 hydration method
T2 sequence (Q8N1Q1 whole entry): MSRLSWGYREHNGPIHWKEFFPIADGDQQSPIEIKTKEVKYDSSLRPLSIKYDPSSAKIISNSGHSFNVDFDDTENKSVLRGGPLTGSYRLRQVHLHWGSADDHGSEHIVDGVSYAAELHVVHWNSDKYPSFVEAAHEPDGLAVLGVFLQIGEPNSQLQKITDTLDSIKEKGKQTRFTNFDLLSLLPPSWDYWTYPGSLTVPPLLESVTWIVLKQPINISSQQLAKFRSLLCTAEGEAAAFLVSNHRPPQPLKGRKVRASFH

Carbonic anhydrase 12 [3] = target: T3, Carbonic anhydrase 12 (Homo sapiens, UniProt O43570); assay: Inhibition of human recombinant carbonic anhydrase 12 preincubated for 15 mins to 72 hrs measured after 15 mins by stopped flow CO2 hydration method
T3 sequence (O43570 whole entry): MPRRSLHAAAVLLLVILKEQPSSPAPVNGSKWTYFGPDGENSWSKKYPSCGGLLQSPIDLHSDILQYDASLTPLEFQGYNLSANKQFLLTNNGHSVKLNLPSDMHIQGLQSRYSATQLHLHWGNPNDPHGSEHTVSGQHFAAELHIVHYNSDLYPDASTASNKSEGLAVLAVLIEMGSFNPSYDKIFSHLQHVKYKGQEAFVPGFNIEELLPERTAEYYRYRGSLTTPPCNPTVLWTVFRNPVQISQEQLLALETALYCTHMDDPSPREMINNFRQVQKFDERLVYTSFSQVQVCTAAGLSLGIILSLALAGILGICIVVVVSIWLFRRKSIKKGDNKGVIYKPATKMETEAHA

Carbonic anhydrase 9 [4] = target: T4, Carbonic anhydrase 9 (Homo sapiens, UniProt Q16790); assay: Inhibition of human recombinant carbonic anhydrase 9 preincubated for 15 mins to 72 hrs measured after 15 mins by stopped flow CO2 hydration method
Carbonic anhydrase 7 [5] = target: T5, Carbonic anhydrase 7 (Homo sapiens, UniProt P43166); assay: Inhibition of human recombinant carbonic anhydrase 7 preincubated for 15 mins to 72 hrs measured after 15 mins by stopped flow CO2 hydration method
T5 sequence (P43166 whole entry): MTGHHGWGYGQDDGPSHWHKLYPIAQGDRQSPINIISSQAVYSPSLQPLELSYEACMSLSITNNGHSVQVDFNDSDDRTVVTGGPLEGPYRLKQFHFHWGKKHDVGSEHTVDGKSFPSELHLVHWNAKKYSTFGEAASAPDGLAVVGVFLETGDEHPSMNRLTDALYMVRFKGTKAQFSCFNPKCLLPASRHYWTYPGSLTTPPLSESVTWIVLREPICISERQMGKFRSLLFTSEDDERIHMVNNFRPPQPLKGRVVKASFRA

Carbonic anhydrase 6 [6] = target: T6, Carbonic anhydrase 6 (Homo sapiens, UniProt P23280); assay: Inhibition of human recombinant carbonic anhydrase 6 preincubated for 15 mins to 72 hrs measured after 15 mins by stopped flow CO2 hydration method
T6 sequence (P23280 whole entry): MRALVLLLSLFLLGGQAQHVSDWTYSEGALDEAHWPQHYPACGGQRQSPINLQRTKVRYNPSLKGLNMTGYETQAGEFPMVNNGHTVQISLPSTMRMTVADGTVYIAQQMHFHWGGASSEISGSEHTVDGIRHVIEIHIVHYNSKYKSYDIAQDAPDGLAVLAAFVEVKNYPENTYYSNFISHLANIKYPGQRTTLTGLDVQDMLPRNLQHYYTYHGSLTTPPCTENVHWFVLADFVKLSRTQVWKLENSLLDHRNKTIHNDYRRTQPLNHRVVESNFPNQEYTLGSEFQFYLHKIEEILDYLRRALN

[7] = target: T7, Carbonic anhydrase 5B, mitochondrial (Homo sapiens, UniProt Q9Y2D0); assay: Inhibition of human recombinant carbonic anhydrase 5B preincubated for 15 mins to 72 hrs measured after 15 mins by stopped flow CO2 hydration method
T7 sequence (Q9Y2D0 whole entry): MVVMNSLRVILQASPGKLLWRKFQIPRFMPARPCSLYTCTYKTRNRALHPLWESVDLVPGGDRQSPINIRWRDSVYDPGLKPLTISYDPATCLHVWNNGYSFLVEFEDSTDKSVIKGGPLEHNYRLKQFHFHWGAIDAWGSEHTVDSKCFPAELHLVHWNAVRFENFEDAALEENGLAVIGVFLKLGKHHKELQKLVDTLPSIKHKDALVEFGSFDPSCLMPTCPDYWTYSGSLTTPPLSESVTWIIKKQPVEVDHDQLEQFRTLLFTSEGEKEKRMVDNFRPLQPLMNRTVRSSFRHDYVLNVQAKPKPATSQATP

[8] = target: T8, Carbonic anhydrase 5A, mitochondrial (Homo sapiens, UniProt P35218); assay: Inhibition of human recombinant carbonic anhydrase 5A preincubated for 15 mins to 72 hrs measured after 15 mins by stopped flow CO2 hydration method
T8 sequence (P35218 whole entry): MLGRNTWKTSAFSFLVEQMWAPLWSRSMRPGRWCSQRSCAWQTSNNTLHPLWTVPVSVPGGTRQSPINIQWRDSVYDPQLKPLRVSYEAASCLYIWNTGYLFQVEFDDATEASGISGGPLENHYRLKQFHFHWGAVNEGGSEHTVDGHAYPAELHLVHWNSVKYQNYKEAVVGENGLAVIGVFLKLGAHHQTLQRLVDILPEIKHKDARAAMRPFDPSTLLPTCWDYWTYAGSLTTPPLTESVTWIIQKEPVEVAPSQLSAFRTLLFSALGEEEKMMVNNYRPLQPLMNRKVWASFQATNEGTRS

Carbonic anhydrase 4 [9] = target: T9, Carbonic anhydrase 4 (Homo sapiens, UniProt P22748); assay: Inhibition of human recombinant carbonic anhydrase 4 preincubated for 15 mins to 72 hrs measured after 15 mins by stopped flow CO2 hydration method
T9 sequence (P22748 whole entry): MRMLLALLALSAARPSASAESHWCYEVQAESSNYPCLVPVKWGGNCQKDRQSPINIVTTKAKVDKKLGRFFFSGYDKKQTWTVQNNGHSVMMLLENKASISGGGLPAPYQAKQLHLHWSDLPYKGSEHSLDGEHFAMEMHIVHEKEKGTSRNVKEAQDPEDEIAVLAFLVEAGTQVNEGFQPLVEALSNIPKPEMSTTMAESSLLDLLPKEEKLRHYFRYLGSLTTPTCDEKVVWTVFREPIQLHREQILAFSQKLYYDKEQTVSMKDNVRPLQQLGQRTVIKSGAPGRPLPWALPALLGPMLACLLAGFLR

Carbonic anhydrase 3 [10] = target: T10, Carbonic anhydrase 3 (Homo sapiens, UniProt P07451); assay: Inhibition of human recombinant carbonic anhydrase 3 preincubated for 15 mins to 72 hrs measured after 15 mins by stopped flow CO2 hydration method
T10 sequence (P07451 whole entry): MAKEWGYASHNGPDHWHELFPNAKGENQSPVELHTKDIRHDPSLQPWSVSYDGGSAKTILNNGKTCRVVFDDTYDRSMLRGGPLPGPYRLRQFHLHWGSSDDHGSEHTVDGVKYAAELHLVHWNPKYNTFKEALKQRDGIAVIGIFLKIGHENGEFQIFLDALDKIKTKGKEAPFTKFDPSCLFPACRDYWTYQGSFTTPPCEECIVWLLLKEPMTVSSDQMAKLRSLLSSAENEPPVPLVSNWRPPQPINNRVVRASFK

Carbonic anhydrase 2 [11] = target: T11, Carbonic anhydrase 2 (Homo sapiens, UniProt P00918); assay: Inhibition of human recombinant carbonic anhydrase 2 preincubated for 15 mins to 72 hrs measured after 15 mins by stopped flow CO2 hydration method
Carbonic anhydrase 1 [12] = target: T12, Carbonic anhydrase 1 (Homo sapiens, UniProt P00915); assay: Inhibition of human recombinant carbonic anhydrase 1 preincubated for 15 mins to 72 hrs measured after 15 mins by stopped flow CO2 hydration method
T12 sequence (P00915 whole entry): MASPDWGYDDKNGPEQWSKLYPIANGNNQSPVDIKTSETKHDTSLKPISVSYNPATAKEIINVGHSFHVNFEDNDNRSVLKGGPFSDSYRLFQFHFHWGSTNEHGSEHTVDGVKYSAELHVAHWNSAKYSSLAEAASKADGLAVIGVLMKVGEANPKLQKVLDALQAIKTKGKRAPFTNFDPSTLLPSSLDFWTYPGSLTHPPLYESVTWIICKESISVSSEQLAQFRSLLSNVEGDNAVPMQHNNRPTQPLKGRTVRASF

Carbonic anhydrase 14 [13] = target: T1, Carbonic anhydrase 14; assay: Inhibition of human recombinant carbonic anhydrase 14 preincubated for 15 mins to 72 hrs measured after 6 hrs by stopped flow CO2 hydration method
Carbonic anhydrase 13 [14] = target: T2, Carbonic anhydrase 13; assay: Inhibition of human recombinant carbonic anhydrase 13 preincubated for 15 mins to 72 hrs measured after 6 hrs by stopped flow CO2 hydration method
Carbonic anhydrase 12 [15] = target: T3, Carbonic anhydrase 12; assay: Inhibition of human recombinant carbonic anhydrase 12 preincubated for 15 mins to 72 hrs measured after 6 hrs by stopped flow CO2 hydration method
Carbonic anhydrase 9 [16] = target: T4, Carbonic anhydrase 9; assay: Inhibition of human recombinant carbonic anhydrase 9 preincubated for 15 mins to 72 hrs measured after 6 hrs by stopped flow CO2 hydration method
Carbonic anhydrase 7 [17] = target: T5, Carbonic anhydrase 7; assay: Inhibition of human recombinant carbonic anhydrase 7 preincubated for 15 mins to 72 hrs measured after 6 hrs by stopped flow CO2 hydration method
Carbonic anhydrase 6 [18] = target: T6, Carbonic anhydrase 6; assay: Inhibition of human recombinant carbonic anhydrase 6 preincubated for 15 mins to 72 hrs measured after 6 hrs by stopped flow CO2 hydration method
[19] = target: T7, Carbonic anhydrase 5B, mitochondrial; assay: Inhibition of human recombinant carbonic anhydrase 5B preincubated for 15 mins to 72 hrs measured after 6 hrs by stopped flow CO2 hydration method
[20] = target: T8, Carbonic anhydrase 5A, mitochondrial; assay: Inhibition of human recombinant carbonic anhydrase 5A preincubated for 15 mins to 72 hrs measured after 6 hrs by stopped flow CO2 hydration method
Carbonic anhydrase 4 [21] = target: T9, Carbonic anhydrase 4; assay: Inhibition of human recombinant carbonic anhydrase 4 preincubated for 15 mins to 72 hrs measured after 6 hrs by stopped flow CO2 hydration method
Carbonic anhydrase 3 [22] = target: T10, Carbonic anhydrase 3; assay: Inhibition of human recombinant carbonic anhydrase 3 preincubated for 15 mins to 72 hrs measured after 6 hrs by stopped flow CO2 hydration method
Carbonic anhydrase 2 [23] = target: T11, Carbonic anhydrase 2; assay: Inhibition of human recombinant carbonic anhydrase 2 preincubated for 15 mins to 72 hrs measured after 6 hrs by stopped flow CO2 hydration method
Carbonic anhydrase 1 [24] = target: T12, Carbonic anhydrase 1; assay: Inhibition of human recombinant carbonic anhydrase 1 preincubated for 15 mins to 72 hrs measured after 6 hrs by stopped flow CO2 hydration method
[25] = tested as the Zn salt or complex

Compound: Oc1ccc2ccccc2n1
Ki (Carbonic anhydrase 14 [1]): 0.036 µM
Ki (Carbonic anhydrase 13 [2]): 0.065 µM
Ki (Carbonic anhydrase 12 [3]): 0.093 µM
Ki (Carbonic anhydrase 9 [4]): 0.082 µM
Ki (Carbonic anhydrase 7 [5]): 0.42 µM
Ki (Carbonic anhydrase 6 [6]): 0.033 µM
Ki [7]: 0.75 µM
Ki [8]: 0.41 µM
Ki (Carbonic anhydrase 4 [9]): 0.36 µM
Ki (Carbonic anhydrase 3 [10]): 0.57 µM
Ki (Carbonic anhydrase 2 [11]): > 200 µM
Ki (Carbonic anhydrase 1 [12]): 6.23 µM
Ki (Carbonic anhydrase 14 [13]): 0.036 µM
Ki (Carbonic anhydrase 13 [14]): 0.065 µM
Ki (Carbonic anhydrase 12 [15]): 0.093 µM
Ki (Carbonic anhydrase 9 [16]): 0.082 µM
Ki (Carbonic anhydrase 7 [17]): 0.42 µM
Ki (Carbonic anhydrase 6 [18]): 0.033 µM
Ki [19]: 0.75 µM
Ki [20]: 0.41 µM
Ki (Carbonic anhydrase 4 [21]): 0.36 µM
Ki (Carbonic anhydrase 3 [22]): 0.57 µM
Ki (Carbonic anhydrase 2 [23]): > 200 µM
Ki (Carbonic anhydrase 1 [24]): 6.23 µM

Ki (Carbonic anhydrase 12 [15]): 0.064 µM
Ki (Carbonic anhydrase 9 [16]): 0.016 µM
Ki (Carbonic anhydrase 7 [17]): 0.27 µM
Ki (Carbonic anhydrase 2 [23]): > 200 µM
Ki (Carbonic anhydrase 1 [24]): 0.009 µM
Compound: Cc1cc(C)o/c(=N/O)c1

Ki (Carbonic anhydrase 12 [15]): 0.054 µM
Ki (Carbonic anhydrase 9 [16]): 0.058 µM
Ki (Carbonic anhydrase 7 [17]): 0.84 µM
Ki (Carbonic anhydrase 2 [23]): > 200 µM
Ki (Carbonic anhydrase 1 [24]): 0.009 µM
Compound: O/N=c1/ccc2ccccc2o1

Compound: CCOP(=S)(OCC)Oc1ccc2c(C)c(Cl)c(=O)oc2c1 [COUMAPHOS]
Ki (Carbonic anhydrase 14 [13]): 4.14 µM
Ki (Carbonic anhydrase 13 [14]): 4.23 µM
Ki (Carbonic anhydrase 12 [15]): 9.52 µM
Ki (Carbonic anhydrase 9 [16]): 6.41 µM
Ki (Carbonic anhydrase 7 [17]): 4.68 µM
Ki (Carbonic anhydrase 6 [18]): 2.23 µM
Ki [19]: 3.41 µM
Ki [20]: 5.09 µM
Ki (Carbonic anhydrase 4 [21]): 5.48 µM
Ki (Carbonic anhydrase 3 [22]): 4.62 µM
Ki (Carbonic anhydrase 2 [23]): > 200 µM
Ki (Carbonic anhydrase 1 [24]): 61.7 µM

Ki (Carbonic anhydrase 13 [14]): > 200 µM
Ki (Carbonic anhydrase 7 [17]): > 200 µM
Ki (Carbonic anhydrase 4 [21]): 62.3 µM
Ki (Carbonic anhydrase 3 [22]): > 200 µM
Compound: O=c1ccc2ccccc2o1 [COUMARIN]

Compound: [O-][n+]1ccccc1S [PYRITHIONE ZINC]
Ki (Carbonic anhydrase 14 [1]; [25]): 2.91 µM
Ki (Carbonic anhydrase 13 [2]; [25]): 4.15 µM
Ki (Carbonic anhydrase 12 [3]; [25]): 5.4 µM
Ki (Carbonic anhydrase 9 [4]; [25]): 1.72 µM
Ki (Carbonic anhydrase 7 [5]; [25]): 7.76 µM
Ki (Carbonic anhydrase 6 [6]; [25]): 2.41 µM
Ki [7, 25]: 3.55 µM
Ki [8, 25]: 5.12 µM
Ki (Carbonic anhydrase 4 [9]; [25]): 6.13 µM
Ki (Carbonic anhydrase 3 [10]; [25]): 1.62 µM
Ki (Carbonic anhydrase 2 [11]; [25]): > 200 µM
Ki (Carbonic anhydrase 1 [12]; [25]): > 200 µM
Ki (Carbonic anhydrase 14 [13]; [25]): 2.91 µM
Ki (Carbonic anhydrase 13 [14]; [25]): 4.15 µM
Ki (Carbonic anhydrase 12 [15]; [25]): 5.4 µM
Ki (Carbonic anhydrase 9 [16]; [25]): 1.72 µM
Ki (Carbonic anhydrase 7 [17]; [25]): 7.76 µM
Ki (Carbonic anhydrase 6 [18]; [25]): 2.41 µM
Ki [19, 25]: 3.55 µM
Ki [20, 25]: 5.12 µM
Ki (Carbonic anhydrase 4 [21]; [25]): 6.13 µM
Ki (Carbonic anhydrase 3 [22]; [25]): 1.62 µM
Ki (Carbonic anhydrase 2 [23]; [25]): > 200 µM
Ki (Carbonic anhydrase 1 [24]; [25]): > 200 µM

Compound: O=C(S)c1ccccc1 [THIOBENZOIC ACID]
Ki (Carbonic anhydrase 12 [3]): 2.77 µM
Ki (Carbonic anhydrase 9 [4]): 5.64 µM
Ki (Carbonic anhydrase 7 [5]): 5.74 µM
Ki (Carbonic anhydrase 2 [11]): 51 µM
Ki (Carbonic anhydrase 1 [12]): 10.8 µM
Ki (Carbonic anhydrase 12 [15]): 2.77 µM
Ki (Carbonic anhydrase 9 [16]): 5.64 µM
Ki (Carbonic anhydrase 7 [17]): 5.74 µM
Ki (Carbonic anhydrase 2 [23]): 51 µM
Ki (Carbonic anhydrase 1 [24]): 10.8 µM
